This is an account of results in article PMC5913400, “Yoda1 analogue (Dooku1) which antagonizes Yoda1‐evoked activation of Piezo1 and aortic relaxation” (British Journal of Pharmacology, 2018).

Read-outs that look alike come from different tables or passages of the source.

Common to all, as to type: cell-based
Test [1] concerns the target T1, Piezo1 (Homo sapiens, UniProt Q92508). Put plainly: partial agonist; […] pretreatment reduces […] Yoda1-evoked Ca2+ entry in Piezo1 T-REx HEK […] cells. As to conditions: TREx-HEK; read-out: % inhibition of Yoda1 response at 10 μM.
The target in test [2] is T1, Piezo1. The test can be described thus: inhibition of […] Yoda1-evoked Ca2+ entry in Piezo1 T-REx HEK […] cells; reversible; also Tl+ flux and HUVECs (IC50 […]).
Test [3] has as its target T1, Piezo1. The test can be described thus: Ca2+ entry at […] in Piezo1 T-REx HEK […] cells ([…] of Yoda1 response); also reduces Yoda1 response. As to conditions: TREx-HEK; read-out: % of 10 μM Yoda1 response.
The target of test [4] is T1, Piezo1. The test can be described thus: intracellular Ca2+ (fura-2) in Piezo1 T-REx HEK […] cells; no response in cells without Piezo1; EC50 […] in HUVECs.
In test [5] the target is T1, Piezo1. Put plainly: Ca2+ entry at […] in Piezo1 T-REx HEK […] cells ([…] of Yoda1 response); also reduces Yoda1 response. As to conditions: TREx-HEK; read-out: % of 10 μM Yoda1 response. The source holds these as a separate data set.

T1 sequence (Q92508 whole entry): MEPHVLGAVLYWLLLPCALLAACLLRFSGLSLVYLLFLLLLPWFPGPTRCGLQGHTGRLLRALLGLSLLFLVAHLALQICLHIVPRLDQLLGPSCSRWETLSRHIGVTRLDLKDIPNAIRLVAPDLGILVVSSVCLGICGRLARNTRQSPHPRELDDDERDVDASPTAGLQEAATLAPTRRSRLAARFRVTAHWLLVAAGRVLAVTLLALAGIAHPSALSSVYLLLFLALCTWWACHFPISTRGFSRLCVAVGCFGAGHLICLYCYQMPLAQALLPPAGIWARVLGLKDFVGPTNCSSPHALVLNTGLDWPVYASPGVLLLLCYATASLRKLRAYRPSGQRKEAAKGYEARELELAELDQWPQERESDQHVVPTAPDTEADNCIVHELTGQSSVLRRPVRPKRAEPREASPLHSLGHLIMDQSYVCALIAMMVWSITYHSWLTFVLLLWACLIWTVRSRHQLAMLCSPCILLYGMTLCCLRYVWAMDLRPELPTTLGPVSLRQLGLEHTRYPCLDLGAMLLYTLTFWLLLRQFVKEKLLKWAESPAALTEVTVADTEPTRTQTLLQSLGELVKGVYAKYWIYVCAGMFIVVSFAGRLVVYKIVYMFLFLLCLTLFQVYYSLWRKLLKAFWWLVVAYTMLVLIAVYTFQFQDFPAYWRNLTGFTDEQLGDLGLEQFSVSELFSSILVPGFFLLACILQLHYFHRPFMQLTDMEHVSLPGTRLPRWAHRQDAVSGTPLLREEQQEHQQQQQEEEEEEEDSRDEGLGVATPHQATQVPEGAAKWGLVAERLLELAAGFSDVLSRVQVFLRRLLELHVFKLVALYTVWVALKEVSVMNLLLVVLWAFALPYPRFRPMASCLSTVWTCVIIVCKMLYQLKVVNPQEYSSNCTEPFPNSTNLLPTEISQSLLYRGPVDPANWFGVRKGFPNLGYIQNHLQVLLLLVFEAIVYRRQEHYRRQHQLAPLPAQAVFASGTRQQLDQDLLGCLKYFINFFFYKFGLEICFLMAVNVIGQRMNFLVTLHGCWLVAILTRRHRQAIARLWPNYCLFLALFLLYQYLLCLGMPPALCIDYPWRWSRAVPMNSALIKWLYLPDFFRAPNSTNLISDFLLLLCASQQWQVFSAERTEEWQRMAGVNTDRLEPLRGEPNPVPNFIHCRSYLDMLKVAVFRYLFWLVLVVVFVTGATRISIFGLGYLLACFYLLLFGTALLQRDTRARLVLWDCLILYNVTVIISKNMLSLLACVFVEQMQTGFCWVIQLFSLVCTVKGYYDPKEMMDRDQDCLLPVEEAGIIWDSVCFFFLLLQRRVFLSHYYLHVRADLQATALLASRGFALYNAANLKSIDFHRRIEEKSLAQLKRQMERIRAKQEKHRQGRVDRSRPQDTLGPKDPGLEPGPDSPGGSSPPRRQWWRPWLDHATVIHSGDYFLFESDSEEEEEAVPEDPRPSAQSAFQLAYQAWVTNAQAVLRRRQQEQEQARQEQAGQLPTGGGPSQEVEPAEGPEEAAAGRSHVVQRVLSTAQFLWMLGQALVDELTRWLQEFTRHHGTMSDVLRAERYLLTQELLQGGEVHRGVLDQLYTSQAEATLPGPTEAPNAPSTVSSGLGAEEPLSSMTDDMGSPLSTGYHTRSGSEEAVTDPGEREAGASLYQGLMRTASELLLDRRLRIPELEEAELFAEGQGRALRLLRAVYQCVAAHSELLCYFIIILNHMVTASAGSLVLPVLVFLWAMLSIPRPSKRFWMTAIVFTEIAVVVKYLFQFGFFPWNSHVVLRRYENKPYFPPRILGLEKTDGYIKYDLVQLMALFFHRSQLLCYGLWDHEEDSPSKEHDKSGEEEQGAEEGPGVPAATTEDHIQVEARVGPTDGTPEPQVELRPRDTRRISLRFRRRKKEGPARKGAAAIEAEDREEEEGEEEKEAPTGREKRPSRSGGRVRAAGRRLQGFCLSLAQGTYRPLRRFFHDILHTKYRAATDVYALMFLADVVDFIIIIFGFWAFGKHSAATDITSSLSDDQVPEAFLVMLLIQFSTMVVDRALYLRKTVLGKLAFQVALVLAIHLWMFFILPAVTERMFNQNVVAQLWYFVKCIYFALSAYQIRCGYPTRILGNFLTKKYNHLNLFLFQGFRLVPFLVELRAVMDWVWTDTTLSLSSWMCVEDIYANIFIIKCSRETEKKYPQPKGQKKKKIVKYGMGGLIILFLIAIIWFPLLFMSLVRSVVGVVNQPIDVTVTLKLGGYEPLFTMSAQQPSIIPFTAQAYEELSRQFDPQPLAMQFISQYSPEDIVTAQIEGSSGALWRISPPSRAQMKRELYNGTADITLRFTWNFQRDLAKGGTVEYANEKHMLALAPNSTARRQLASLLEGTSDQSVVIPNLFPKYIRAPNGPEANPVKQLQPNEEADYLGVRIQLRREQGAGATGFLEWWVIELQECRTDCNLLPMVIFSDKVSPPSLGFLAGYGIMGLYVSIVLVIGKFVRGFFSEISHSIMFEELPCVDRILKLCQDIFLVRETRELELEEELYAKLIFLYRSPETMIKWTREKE

Usually inhibition stands for the change of the read-out against control, counted positive when it falls. `Clc1cccc(Cl)c1CSc1nnc(-c2ccccn2)o1` [2j]: the inhibition at 10 µM on Piezo1 [1] was roughly 75%.
One may read the IC50 as the concentration that inhibits the measured activity by half. A lower IC50 goes with greater potency in that assay. In the case of `Clc1cccc(Cl)c1CSc1nnc(-c2ccc[nH]2)o1` [2k, Dooku1], the half-inhibitory concentration (IC50) against Piezo1 [2] was 1300 nM.
On to `Clc1cccc(Cl)c1CSc1nnc(-c2cccnc2)s1` [7a], for which the Emax on Piezo1 [3] worked out at 50%.
What is called EC50 is the concentration at which the effect is half-maximal. High values mean weaker potency, low ones greater potency. Molecule `Clc1cccc(Cl)c1CSc1nnc(-c2cnccn2)s1` [Yoda1] came in with a 50% effective concentration (EC50) on Piezo1 [4] of 2510 nM.
On to `Clc1cccc(Cl)c1CSc1nnc(-c2cnccn2)o1` [compound 11], for which, at Piezo1 [5], the Emax was roughly 70%.
